Test results: patent US20050070510A1, “Substituted tetracycline compounds as synergistic antifungal agents” (Paratek Pharmaceuticals, Inc., priority 2001, published 2005)

System: COS-1 cells
Assay: In vitro mammalian cytotoxicity assay (Resazurin)

**Q.** CC(C)c1cccc(-c2ccc(O)c3c2C[C@@]2(N)C[C@@]4(N)[C@H](N(C)C)C(O)=C(C(N)=O)C(=O)[C@@]4(C#N)C(O)=C2C3=O)c1 [OI] was tested. Which “In Vitro Cytotoxicity” value did it give?
**A.** ** (toxicities less than 25 μg/mL are represented by **)

**Q.** Which “In Vitro Cytotoxicity” value does the source give for CN(C)CC(=O)O[C@H]1[C@@]2(N)C(=C(O)[C@]3(C#N)C(=O)C(C(N)=O)=C(O)[C@@H](N(C)C)[C@]13N)C(=O)c1c(O)cccc1[C@@H]2N [BZ] here?
**A.** ** (toxicities less than 25 μg/mL are represented by **)

**Q.** COc1ccc(C=O)cc1-c1ccc(O)c2c1C[C@@]1(N)C[C@@]3(N)[C@H](N(C)C)C(O)=C(C(N)=O)C(=O)[C@@]3(C#N)C(O)=C1C2=O [OW] was tested. Which “In Vitro Cytotoxicity” value did it give?
**A.** * (toxicities greater than >25 μg/ml are represented by *)

**Q.** For COc1ccc(-c2ccc(O)c3c2C[C@@]2(N)C[C@@]4(N)[C@H](N(C)C)C(O)=C(C(N)=O)C(=O)[C@@]4(C#N)C(O)=C2C3=O)cc1CN [QD], which “In Vitro Cytotoxicity” value is on record?
**A.** * (toxicities greater than >25 μg/ml are represented by *)

**Q.** Which “In Vitro Cytotoxicity” value does the source give for CCCc1cccc(-c2ccc(O)c3c2C[C@@]2(N)C[C@@]4(N)[C@H](N(C)C)C(O)=C(C(N)=O)C(=O)[C@@]4(C#N)C(O)=C2C3=O)c1 [FY] here?
**A.** ** (toxicities less than 25 μg/mL are represented by **)

**Q.** For CN(C)c1ccc(-c2cc(F)c(O)c3c2C[C@@]2(N)C[C@@]4(N)[C@H](N(C)C)C(O)=C(C(N)=O)C(=O)[C@@]4(C#N)C(O)=C2C3=O)cc1 [OX], which “In Vitro Cytotoxicity” value is on record?
**A.** ** (toxicities less than 25 μg/mL are represented by **)

**Q.** Which “In Vitro Cytotoxicity” value does the source give for CN(C)[C@@H]1C(O)=C(C(N)=O)C(=O)[C@@]2(C#N)C(O)=C3C(=O)c4c(O)ccc(C#CC5CCCCC5)c4C[C@@]3(N)C[C@@]12N [FI] here?
**A.** ** (toxicities less than 25 μg/mL are represented by **)

**Q.** Which “In Vitro Cytotoxicity” value does the source give for CN(C)[C@@H]1C(O)=C(C(N)=O)C(=O)[C@@]2(C#N)C(O)=C3C(=O)c4c(O)c(CNC(=O)c5cccnc5)cc(CCC5CCCCC5)c4C[C@@]3(N)C[C@@]12N [JC] here?
**A.** ** (toxicities less than 25 μg/mL are represented by **)

**Q.** With CN(C)c1cc(-c2ccc(Cl)cc2)c(O)c2c1C[C@@]1(N)C[C@@]3(N)[C@H](N(C)C)C(O)=C(C(N)=O)C(=O)[C@@]3(C#N)C(O)=C1C2=O [EQ] as the molecule, how does the “In Vitro Cytotoxicity” value read?
**A.** ** (toxicities less than 25 μg/mL are represented by **)

**Q.** For CN(C)[C@@H]1C(O)=C(C(N)=O)C(=O)[C@@]2(C#N)C(O)=C3C(=O)c4c(ccc(-c5ccc6c(c5)OCO6)c4O)[C@H](N)[C@@]3(N)[C@H](O)[C@@]12N [PV], which “In Vitro Cytotoxicity” value is on record?
**A.** ** (toxicities less than 25 μg/mL are represented by **)

**Q.** For Cc1coc(NCc2cc(N(C)C)c3c(c2O)C(=O)C2=C(O)[C@]4(C#N)C(=O)C(C(N)=O)=C(O)[C@@H](N(C)C)[C@]4(N)C[C@]2(N)C3)n1 [TE], which “In Vitro Cytotoxicity” value is on record?
**A.** * (toxicities greater than >25 μg/ml are represented by *)

**Q.** How did the “In Vitro Cytotoxicity” value turn out when CCCC(C)(C)NC(=O)C1=C(O)[C@@H](N(C)C)[C@]2(N)[C@@H](O)[C@@]3(N)C(=C(O)[C@]2(C#N)C1=O)C(=O)c1c(O)cccc1[C@@H]3N [BD] was run?
**A.** ** (toxicities less than 25 μg/mL are represented by **)

**Q.** For CN(C)c1cc(NCC2CCCCC2)c(O)c2c1C[C@@]1(N)C[C@@]3(N)[C@H](N(C)C)C(O)=C(C(N)=O)C(=O)[C@@]3(C#N)C(O)=C1C2=O [MR], which “In Vitro Cytotoxicity” value is on record?
**A.** ** (toxicities less than 25 μg/mL are represented by **)

**Q.** CCCCCCc1ccc(O)c2c1C[C@@]1(N)C[C@@]3(N)[C@H](N(C)C)C(O)=C(C(N)=O)C(=O)[C@@]3(C#N)C(O)=C1C2=O [JE] was tested. Which “In Vitro Cytotoxicity” value did it give?
**A.** ** (toxicities less than 25 μg/mL are represented by **)

**Q.** Which “In Vitro Cytotoxicity” value does the source give for CN(C)[C@@H]1C(O)=C(C(N)=O)C(=O)[C@@]2(C#N)C(O)=C3C(=O)c4c(O)ccc(-c5ccc(CN6CCCC6)o5)c4C[C@@]3(N)C[C@@]12N [PJ] here?
**A.** * (toxicities greater than >25 μg/ml are represented by *)

**Q.** For CN(C)[C@@H]1C(O)=C(C(N)=O)C(=O)[C@@]2(C#N)C(O)=C3C(=O)c4c(O)ccc(-c5ccc(CN6CCOCC6)c6ccccc56)c4C[C@@]3(N)C[C@@]12N [ON], which “In Vitro Cytotoxicity” value is on record?
**A.** ** (toxicities less than 25 μg/mL are represented by **)

**Q.** Which “In Vitro Cytotoxicity” value does the source give for CCC(C)CNCc1cc(N(C)C)c2c(c1O)C(=O)C1=C(O)[C@]3(C#N)C(=O)C(C(N)=O)=C(O)[C@@H](N(C)C)[C@]3(N)C[C@]1(N)C2 (stereo partly drawn) [SZ] here?
**A.** * (toxicities greater than >25 μg/ml are represented by *)

**Q.** With CN(C)[C@@H]1C(O)=C(C(N)=O)C(=O)[C@@]2(C#N)C(O)=C3C(=O)c4c(O)ccc(-c5cc(F)cc(F)c5)c4C[C@@]3(N)C[C@@]12N [PM] as the molecule, how does the “In Vitro Cytotoxicity” value read?
**A.** ** (toxicities less than 25 μg/mL are represented by **)

**Q.** Which “In Vitro Cytotoxicity” value does the source give for CC(C)NCc1ccc(-c2ccc(O)c3c2[C@H](N)[C@]2(N)C(=C(O)[C@]4(C#N)C(=O)C(C(N)=O)=C(O)[C@@H](N(C)C)[C@]4(N)[C@H]2O)C3=O)o1 [QK] here?
**A.** * (toxicities greater than >25 μg/ml are represented by *)

**Q.** How did the “In Vitro Cytotoxicity” value turn out when CN(C)c1cc(CNC(=O)Nc2ccc(OC(F)(F)F)cc2)c(O)c2c1C[C@@]1(N)C[C@@]3(N)[C@H](N(C)C)C(O)=C(C(N)=O)C(=O)[C@@]3(C#N)C(O)=C1C2=O [NE] was run?
**A.** * (toxicities greater than >25 μg/ml are represented by *)

**Q.** How did the “In Vitro Cytotoxicity” value turn out when CN(C)c1cc(CNC(=O)Nc2ccc3c(c2)OCO3)c(O)c2c1C[C@@]1(N)C[C@@]3(N)[C@H](N(C)C)C(O)=C(C(N)=O)C(=O)[C@@]3(C#N)C(O)=C1C2=O [MZ] was run?
**A.** * (toxicities greater than >25 μg/ml are represented by *)

**Q.** With CN(C)c1cc(CNC(=O)Nc2ccc(Cl)cc2)c(O)c2c1C[C@@]1(N)C[C@@]3(N)[C@H](N(C)C)C(O)=C(C(N)=O)C(=O)[C@@]3(C#N)C(O)=C1C2=O [MW] as the molecule, how does the “In Vitro Cytotoxicity” value read?
**A.** ** (toxicities less than 25 μg/mL are represented by **)

**Q.** With CC(CF)Nc1ccc(-c2ccc(O)c3c2C[C@@]2(N)C[C@@]4(N)[C@H](N(C)C)C(O)=C(C(N)=O)C(=O)[C@@]4(C#N)C(O)=C2C3=O)cc1 (stereo partly drawn) [VK] as the molecule, how does the “In Vitro Cytotoxicity” value read?
**A.** ** (toxicities less than 25 μg/mL are represented by **)

**Q.** CN(C)c1ccc(-c2cc(N)c(O)c3c2C[C@@]2(N)C[C@@]4(N)C(N(C)C)C(O)=C(C(N)=O)C(=O)[C@@]4(C#N)C(O)=C2C3=O)cc1 (stereo partly drawn) [RB] was tested. Which “In Vitro Cytotoxicity” value did it give?
**A.** * (toxicities greater than >25 μg/ml are represented by *)

**Q.** For CN(C)C1C(O)=C(C(N)=O)C(=O)[C@@]2(C#N)C(O)=C3C(=O)c4c(O)ccc(-c5ccc(NC(=O)c6ccno6)cc5)c4C[C@@]3(N)C[C@@]12N (stereo partly drawn) [RH], which “In Vitro Cytotoxicity” value is on record?
**A.** * (toxicities greater than >25 μg/ml are represented by *)

**Q.** For COC(=O)C#Cc1cc(N(C)C)c2c(c1O)C(=O)C1=C(O)[C@]3(C#N)C(=O)C(C(N)=O)=C(O)[C@@H](N(C)C)[C@]3(N)C[C@]1(N)C2 [JI], which “In Vitro Cytotoxicity” value is on record?
**A.** * (toxicities greater than >25 μg/ml are represented by *)

**Q.** For Cc1ccnc(-c2ccc(O)c3c2C[C@@]2(N)C[C@@]4(N)[C@H](N(C)C)C(O)=C(C(N)=O)C(=O)[C@@]4(C#N)C(O)=C2C3=O)c1 [VE], which “In Vitro Cytotoxicity” value is on record?
**A.** ** (toxicities less than 25 μg/mL are represented by **)

**Q.** How did the “In Vitro Cytotoxicity” value turn out when CN(C)[C@@H]1C(O)=C(C(N)=O)C(=O)[C@@]2(C#N)C(O)=C3C(=O)c4c(ccc(Nc5nc(-c6cccc([N+](=O)O)c6)cs5)c4O)[C@H](O)[C@@]3(N)[C@H](O)[C@@]12N [DV] was run?
**A.** ** (toxicities less than 25 μg/mL are represented by **)

**Q.** CN(C)c1cc(-c2ccc(OC(F)(F)F)cc2)c(O)c2c1C[C@@]1(N)C[C@@]3(N)[C@H](N(C)C)C(O)=C(C(N)=O)C(=O)[C@@]3(C#N)C(O)=C1C2=O [MA] was tested. Which “In Vitro Cytotoxicity” value did it give?
**A.** ** (toxicities less than 25 μg/mL are represented by **)

**Q.** Which “In Vitro Cytotoxicity” value does the source give for CO/N=C(/C)c1cc(C(C)(C)C)c(O)c2c1C[C@@]1(N)C[C@@]3(N)[C@H](N(C)C)C(O)=C(C(N)=O)C(=O)[C@@]3(C#N)C(O)=C1C2=O [RA] here?
**A.** ** (toxicities less than 25 μg/mL are represented by **)

**Q.** With CN(C)[C@@H]1C(O)=C(C(N)=O)C(=O)[C@@]2(C#N)C(O)=C3C(=O)c4c(O)c(C(C)(C)C)cc(CCC(=O)c5cccnc5)c4C[C@@]3(N)C[C@@]12N [ID] as the molecule, how does the “In Vitro Cytotoxicity” value read?
**A.** * (toxicities greater than >25 μg/ml are represented by *)

**Q.** How did the “In Vitro Cytotoxicity” value turn out when COc1ccc(C#Cc2cc(N(C)C)c3c(c2O)C(=O)C2=C(O)[C@]4(C#N)C(=O)C(C(N)=O)=C(O)[C@@H](N(C)C)[C@]4(N)C[C@]2(N)C3)cc1 [FE] was run?
**A.** ** (toxicities less than 25 μg/mL are represented by **)

**Q.** With CN(C)c1ccc(-c2cc([N+](=O)O)c(O)c3c2C[C@@]2(N)C[C@@]4(N)C(N(C)C)C(O)=C(C(N)=O)C(=O)[C@@]4(C#N)C(O)=C2C3=O)cc1 (stereo partly drawn) [RE] as the molecule, how does the “In Vitro Cytotoxicity” value read?
**A.** ** (toxicities less than 25 μg/mL are represented by **)

**Q.** Which “In Vitro Cytotoxicity” value does the source give for CN(C)[C@@H]1C(O)=C(C(N)=O)C(=O)[C@@]2(C#N)C(O)=C3C(=O)c4c(O)c(CNC(=O)CCl)cc(-c5ccccc5)c4C[C@@]3(N)C[C@@]12N [KD] here?
**A.** ** (toxicities less than 25 μg/mL are represented by **)

**Q.** With CN(C)[C@@H]1C(O)=C(C(N)=O)C(=O)[C@@]2(C#N)C(O)=C3C(=O)c4c(O)c(I)cc(I)c4[C@H](N)[C@@]3(N)[C@H](O)[C@@]12N [CT] as the molecule, how does the “In Vitro Cytotoxicity” value read?
**A.** ** (toxicities less than 25 μg/mL are represented by **)

**Q.** Which “In Vitro Cytotoxicity” value does the source give for CCOC(=O)CNCc1ccc(-c2ccc(O)c3c2C[C@@]2(N)C[C@@]4(N)[C@H](N(C)C)C(O)=C(C(N)=O)C(=O)[C@@]4(C#N)C(O)=C2C3=O)cc1 [OS] here?
**A.** ** (toxicities less than 25 μg/mL are represented by **)

**Q.** CN(C)c1cc(NC(=O)CNC(C)(C)C)c(O)c2c1C[C@@]1(N)C[C@@]3(N)[C@H](N(C)C)C(O)=C(C(N)=O)C(=O)[C@@]3(C#N)C(O)=C1C2=O [LC] was tested. Which “In Vitro Cytotoxicity” value did it give?
**A.** * (toxicities greater than >25 μg/ml are represented by *)

**Q.** Which “In Vitro Cytotoxicity” value does the source give for Cc1ccc(C#Cc2ccc(O)c3c2C[C@@]2(N)C[C@@]4(N)[C@H](N(C)C)C(O)=C(C(N)=O)C(=O)[C@@]4(C#N)C(O)=C2C3=O)cc1 [GI] here?
**A.** ** (toxicities less than 25 μg/mL are represented by **)

**Q.** How did the “In Vitro Cytotoxicity” value turn out when CN(C)c1cc(NCc2ccc([N+](=O)O)o2)c(O)c2c1C[C@@]1(N)C[C@@]3(N)[C@H](N(C)C)C(O)=C(C(N)=O)C(=O)[C@@]3(C#N)C(O)=C1C2=O [UH] was run?
**A.** ** (toxicities less than 25 μg/mL are represented by **)
